Assay results as given in PubChem BioAssay (NCI).
Where “and” joins values, the source holds several entries; their conditions need not be identical. Equal entries are not always repeated.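 Cells were grown in 96-well plates and exposed to each compound for 48 hours at five concentrations; endpoints were interpolated linearly between bracketing concentrations, or set to the highest concentration if not reached. GI50 marks 50% less growth. The concentration for full growth arrest is given as TGI.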

Assays:
Assay in all cases: growth of human tumour cells (NCI), 48 h; in the data active = GI50 below about 0.43 µM; inactive = the rest
EKVX NSCLC = tested on: EKVX NSCLC
SK-OV-3 ovarian = tested on: SK-OV-3 ovarian
LOX IMVI melanoma = tested on: LOX IMVI melanoma
HCT-116 colon = tested on: HCT-116 colon
NCI-H522 lung = tested on: NCI-H522 lung
M14 melanoma = tested on: M14 melanoma
T-47D breast = tested on: T-47D breast
TK-10 renal = tested on: TK-10 renal
A549 NSCLC = tested on: A549 NSCLC
MDA-N = tested on: MDA-N
MDA-MB-231 breast = tested on: MDA-MB-231 breast
OVCAR-4 ovarian = tested on: OVCAR-4 ovarian
SK-MEL-28 melanoma = tested on: SK-MEL-28 melanoma
HCC-2998 colon = tested on: HCC-2998 colon
UACC-62 melanoma = tested on: UACC-62 melanoma
HT29 colon = tested on: HT29 colon
SR leukemia = tested on: SR leukemia
SF-268 CNS = tested on: SF-268 CNS
HCT-15 colon = tested on: HCT-15 colon
OVCAR-5 ovarian = tested on: OVCAR-5 ovarian
COLO 205 colon = tested on: COLO 205 colon
OVCAR-3 ovarian = tested on: OVCAR-3 ovarian
SNB-19 CNS = tested on: SNB-19 CNS
BT-549 breast = tested on: BT-549 breast
UACC-257 melanoma = tested on: UACC-257 melanoma
PC-3 prostate = tested on: PC-3 prostate
HL-60(TB) leukemia = tested on: HL-60(TB) leukemia
SF-539 CNS = tested on: SF-539 CNS
NCI/ADR-RES ovarian = tested on: NCI/ADR-RES ovarian
U251 CNS = tested on: U251 CNS
MDA-MB-435 = tested on: MDA-MB-435
786-0 renal = tested on: 786-0 renal
NCI-H23 lung = tested on: NCI-H23 lung
KM12 colon = tested on: KM12 colon
UO-31 renal = tested on: UO-31 renal
SF-295 CNS = tested on: SF-295 CNS
SW-620 colon = tested on: SW-620 colon
OVCAR-8 ovarian = tested on: OVCAR-8 ovarian
K-562 leukemia = tested on: K-562 leukemia
MCF7 breast = tested on: MCF7 breast
NCI-H460 lung = tested on: NCI-H460 lung
HOP-92 NSCLC = tested on: HOP-92 NSCLC
MOLT-4 leukemia = tested on: MOLT-4 leukemia
SNB-75 CNS = tested on: SNB-75 CNS
SN12C renal = tested on: SN12C renal
CCRF-CEM leukemia = tested on: CCRF-CEM leukemia
DU-145 prostate = tested on: DU-145 prostate
IGROV1 ovarian = tested on: IGROV1 ovarian
SK-MEL-5 melanoma = tested on: SK-MEL-5 melanoma
HOP-62 NSCLC = tested on: HOP-62 NSCLC
RXF 393 renal = tested on: RXF 393 renal
MALME-3M melanoma = tested on: MALME-3M melanoma
ACHN renal = tested on: ACHN renal
NCI-H226 lung = tested on: NCI-H226 lung
SK-MEL-2 melanoma = tested on: SK-MEL-2 melanoma
A498 renal = tested on: A498 renal
HS 578T breast = tested on: HS 578T breast
CAKI-1 renal = tested on: CAKI-1 renal
RPMI-8226 leukemia = tested on: RPMI-8226 leukemia

O=C1CCCSCCCC(=O)CCCSCCC1
> 100 µM: TGI (EKVX NSCLC) | TGI (SK-OV-3 ovarian) | TGI (LOX IMVI melanoma) | TGI (HCT-116 colon) | TGI (NCI-H522 lung) | TGI (M14 melanoma) | TGI (T-47D breast) | TGI (TK-10 renal) | TGI (A549 NSCLC) | TGI (MDA-N) | TGI (MDA-MB-231 breast) | TGI (OVCAR-4 ovarian) | TGI (SK-MEL-28 melanoma) | TGI (HCC-2998 colon) | TGI (UACC-62 melanoma) | TGI (HT29 colon) | TGI (SR leukemia) | TGI (SF-268 CNS) | TGI (HCT-15 colon) | TGI (OVCAR-5 ovarian) | TGI (COLO 205 colon) | TGI (OVCAR-3 ovarian) | TGI (SNB-19 CNS) | TGI (BT-549 breast) | TGI (UACC-257 melanoma) | TGI (PC-3 prostate) | TGI (HL-60(TB) leukemia) | TGI (SF-539 CNS) | TGI (NCI/ADR-RES ovarian) | TGI (U251 CNS) | TGI (MDA-MB-435) | TGI (786-0 renal) | TGI (NCI-H23 lung) | TGI (KM12 colon) | TGI (UO-31 renal) | TGI (SF-295 CNS) | TGI (SW-620 colon) | TGI (OVCAR-8 ovarian) | TGI (K-562 leukemia) | TGI (MCF7 breast) | TGI (NCI-H460 lung) | TGI (HOP-92 NSCLC) | TGI (MOLT-4 leukemia) | TGI (SNB-75 CNS) | TGI (SN12C renal) | TGI (CCRF-CEM leukemia) | TGI (DU-145 prostate) | TGI (IGROV1 ovarian) | TGI (SK-MEL-5 melanoma) | TGI (HOP-62 NSCLC)

CC[C@@]1(O)C(=O)OCc2c1cc1n(c2=O)Cc2c-1nc1ccccc1c2C=Nc1ccc(N[C@@H]2c3cc4c(cc3[C@@H](c3cc(OC)c(O)c(OC)c3)[C@H]3C(=O)OC[C@@H]32)OCO4)cc1
19.3 µM and 10.3 µM: TGI (K-562 leukemia)
> 100 µM: TGI (NCI-H522 lung) | TGI (SK-MEL-28 melanoma) | TGI (HT29 colon) | TGI (SF-268 CNS) | TGI (SNB-19 CNS) | TGI (PC-3 prostate) | TGI (HL-60(TB) leukemia) | TGI (HS 578T breast) | TGI (MOLT-4 leukemia) | TGI (CCRF-CEM leukemia)
9.93 µM: TGI (SK-OV-3 ovarian)
27.6 µM and 3.4 µM: TGI (MDA-N)
55.7 µM and > 100 µM: TGI (SW-620 colon)
> 44.3 µM and 6.24 µM: TGI (KM12 colon)
8.02 µM and 15.9 µM: TGI (SF-295 CNS)
15.6 µM and 1.84 µM: TGI (A549 NSCLC)
0.309 µM and 0.366 µM: TGI (SK-MEL-5 melanoma)
0.742 µM and 0.253 µM: TGI (M14 melanoma)
18.4 µM and 4.06 µM: TGI (MDA-MB-231 breast)
1.69 µM and 0.269 µM: GI50 (KM12 colon)
0.329 µM: TGI (786-0 renal)
0.133 µM: TGI (NCI-H23 lung)
1.08 µM and 0.236 µM: GI50 (HCT-15 colon)
0.132 µM: TGI (SF-539 CNS)
0.18 µM and 0.028 µM: TGI (DU-145 prostate)
1.72 µM and 0.261 µM: TGI (A498 renal)
19.9 µM and 10.9 µM: TGI (EKVX NSCLC)
0.676 µM and 0.155 µM: GI50 (MALME-3M melanoma)
0.0374 µM: TGI (ACHN renal)
0.557 µM and 0.185 µM: GI50 (OVCAR-3 ovarian)
> 48.8 µM: TGI (U251 CNS)
0.822 µM and 0.0864 µM: GI50 (PC-3 prostate)
0.263 µM: TGI (OVCAR-8 ovarian)
28.5 µM and 3.33 µM: TGI (TK-10 renal)
28.2 µM: TGI (SR leukemia)
0.545 µM and 0.141 µM: GI50 (OVCAR-5 ovarian)
> 100 µM and 35.8 µM: TGI (COLO 205 colon)
1.52 µM: TGI (UO-31 renal)
2.25 µM and 0.546 µM: TGI (RXF 393 renal)
> 56 µM: TGI (OVCAR-4 ovarian)
6.45 µM and 0.653 µM: TGI (HCT-116 colon)
0.668 µM and 0.141 µM: GI50 (SK-OV-3 ovarian)
2.71 µM and 0.308 µM: TGI (NCI-H226 lung)
inactive: GI50 (EKVX NSCLC) 2.51 µM and 0.665 µM | GI50 (TK-10 renal) 2.16 µM and 0.815 µM | GI50 (SK-MEL-2 melanoma) 2.5 µM and 0.535 µM
6.01 µM and 0.74 µM: TGI (OVCAR-3 ovarian)
12.5 µM and > 100 µM: TGI (MDA-MB-435)
active: GI50 (HCT-116 colon) 0.0251 µM | GI50 (MDA-N) 0.351 µM and 0.0613 µM | GI50 (HCC-2998 colon) 0.369 µM and 0.131 µM | GI50 (RXF 393 renal) 0.127 µM and 0.0526 µM | GI50 (HT29 colon) 0.364 µM and 0.104 µM | GI50 (UACC-257 melanoma) 0.354 µM | GI50 (NCI-H226 lung) 0.0483 µM and 0.0179 µM | GI50 (NCI/ADR-RES ovarian) 0.0449 µM and < 0.01 µM | GI50 (MDA-MB-435) 0.295 µM and 0.188 µM | GI50 (SF-295 CNS) 0.0619 µM and 0.0503 µM | GI50 (A498 renal) 0.21 µM and 0.0448 µM | GI50 (OVCAR-8 ovarian) 0.0264 µM and 0.016 µM | GI50 (HOP-92 NSCLC) 0.0258 µM | GI50 (SNB-75 CNS) 0.0498 µM and < 0.0169 µM | GI50 (SN12C renal) 0.0291 µM and 0.0101 µM | GI50 (IGROV1 ovarian) 0.274 µM and 0.132 µM | GI50 (SK-MEL-5 melanoma) 0.0255 µM

COc1nc(N)nc2c1n(C)c[n+]2C
> 100 µM: TGI (EKVX NSCLC) | TGI (SK-OV-3 ovarian) | TGI (LOX IMVI melanoma) | TGI (HCT-116 colon) | TGI (NCI-H522 lung) | TGI (M14 melanoma) | TGI (T-47D breast) | TGI (TK-10 renal) | TGI (A549 NSCLC) | TGI (MDA-N) | TGI (MDA-MB-231 breast) | TGI (CAKI-1 renal) | TGI (SK-MEL-28 melanoma) | TGI (RXF 393 renal) | TGI (UACC-62 melanoma) | TGI (MALME-3M melanoma) | TGI (HT29 colon) | TGI (SF-268 CNS) | TGI (HCT-15 colon) | TGI (OVCAR-5 ovarian) | TGI (COLO 205 colon) | TGI (OVCAR-3 ovarian) | TGI (SNB-19 CNS) | TGI (BT-549 breast) | TGI (ACHN renal) | TGI (RPMI-8226 leukemia) | TGI (UACC-257 melanoma) | TGI (PC-3 prostate) | TGI (NCI-H226 lung) | TGI (HL-60(TB) leukemia) | TGI (SF-539 CNS) | TGI (NCI/ADR-RES ovarian) | TGI (SK-MEL-2 melanoma) | TGI (U251 CNS) | TGI (MDA-MB-435) | TGI (786-0 renal) | TGI (NCI-H23 lung) | TGI (KM12 colon) | TGI (UO-31 renal) | TGI (SF-295 CNS) | TGI (SW-620 colon) | TGI (A498 renal) | TGI (HS 578T breast) | TGI (OVCAR-8 ovarian) | TGI (K-562 leukemia) | TGI (NCI-H460 lung) | TGI (HOP-92 NSCLC) | TGI (MOLT-4 leukemia) | TGI (SNB-75 CNS) | TGI (SN12C renal) | TGI (CCRF-CEM leukemia) | TGI (DU-145 prostate) | TGI (IGROV1 ovarian) | TGI (SK-MEL-5 melanoma) | TGI (HOP-62 NSCLC)
